8 compounds from patent US20140171438A1, “Hybrid Compounds And Methods Of Making And Using The Same” (CELLCEUTIX CORPORATION, priority 2012, published 2014) can be followed below.

≈ marks a conversion by molar mass, not a printed value.

In one series the test system is E. Coli ATCC 25922. As to the kind of experiment: Antimicrobial activity, MIC, modified microbroth dilution. Particulars: Escherichia coli, ATCC25922; E. coli (25922); 18 hours incubation; read-out: MIC (expressed as MIC50) E. coli. Type of series: cell-based. How it is done:
(§1) The compounds were screened for antimicrobial activity against a number of ATCC bacterial strains. Minimum Inhibitory Concentrations (MIC) of each of the compounds were determined using standard CLSI procedures modified by Hancock protocol against E. Coli ATCC 25922, Staphylococcus aureus ATCC 27660, Enterococcus faecalis ATCC 29212, Pseudomonas aeruginosa ATCC 10145, and Klebsiella pneumoniae ATCC 13883.
(§2) This procedure is a modification of the standard microbroth dilution assay recommended by the National Committee for Clinical Laboratory Standards (NCCLS) which has been developed for determining in vitro antimicrobial activities of cationic agents (Steinberg et al., Antimicrob. Agents Chemother., 1997, 41, 1738; and Yan et al., Antimicrob. Agents Chemother., 2001, 45, 1558). The modifications were made to minimize loss of the antimicrobial agent due to adsorption onto glass or plastic surfaces and by precipitation at high concentrations.
(§3) Three mL of Mueller-Hinton II Broth (cation-adjusted) was inoculated with 5 μL of frozen bacterial stock and incubated at 37° C. on a shaker platform (at 250 rpm) overnight. Compound stock solutions were prepared in DMSO and serial two-fold dilutions of compound were made in 0.01% acetic acid, 0.2% bovine serum albumin directly in the wells of the polypropylene plate at 10 μL/well. […] All samples were performed in duplicate. The overnight bacteria suspension was diluted to approximately 10^6 cfu/mL and inoculated into a polypropylene (Costar) 96-well round bottom plate (90 μL volumes). One set of control wells included broth-only samples with dilution buffer for testing sterility and providing blank values for the assay readings. Vehicle-control wells containing the bacterial suspension with DMSO (no compound) were also included. Following the overnight incubation (18 hours), cell growth was assessed by observing the presence of “acceptable growth”, defined by NCCLS as a ≧2 mm button or definite turbidity.
(§4) Actual results from a representative MIC assay are shown below in Table 1. Data is expressed as MIC50 in μg/mL. The bacterial isolates were as follows: E. coli (25922); S. aureus (27660); E. faecalis (29212); P. aeruginosa (10145); and K. pneumoniae (13883).

Series [1] has as its system Staphylococcus aureus ATCC 27660. The description is as above. It is filed as cell-based. Particulars: ATCC27660, S. aureus (27660), 18 hours incubation, read-out: MIC (expressed as MIC50) S. aureus. How it is done: as §1, §2, §3, §4
The test system of series [2] is Pseudomonas aeruginosa ATCC 10145. Described as above. The conditions noted are these: ATCC10145, P. aeruginosa (10145), 18 hours incubation, read-out: MIC (expressed as MIC50) P. Aeruginosa. Type of series: cell-based. How it is done:
as §1, §2, §3, §4

Series [3] relates to Klebsiella pneumoniae ATCC 13883. The description is as above. It is filed as cell-based. The conditions noted are these: ATCC13883, K. pneumoniae (13883), 18 hours incubation, read-out: MIC (expressed as MIC50) K. Pnuemnoiae. As for the experimental part: as §1, §2, §3, §4
Series [4] deals with Enterococcus faecalis ATCC 29212. The description is as above. It is filed as cell-based. Particulars: ATCC29212, E. faecalis (29212), 18 hours incubation, read-out: MIC (expressed as MIC50) E. faecalis. As for the experimental part: as §1, §2, §3, §4
The nature of series [5]: Cytotoxicity, colorimetric tetrazolium assay. It is filed as cell-based. Particulars: one hour with compound in serum-free media. As for the experimental part:
Cytotoxicity of the compounds was evaluated in a colorimetric assay using a transformed human liver cell line (HepG2, HB-8065) and an embryonic mouse cell line (NIH/3T3 cells, CRL-1658). This assay measures the bioreduction of a novel tetrazolium compound to a soluble formazan product by viable cells. HepG2 cells were seeded in 96 well plates at 2×10^4 cells/well in MEM medium with 10% fetal bovine serum (FBS) for 24 hours prior to use. NIH/3T3 cells were seeded in 96 well plates at 2×10^4 cells/well in DMEM medium with 10% bovine calf serum (BCS) 24 hours prior to use. Cell monolayers were rinsed in serum-free media and incubated for one hour with the compound in serum-free media. After incubation, the media was replaced with serum supplemented media and live cells were measured using the Cell Titer 96 Aqueous […] (Promega, Madison, Wis.). EC50 values were determined using a four parameter logistic equation: Y=Bottom+(Top−Bottom)/(1+10̂((Log EC50−X)*HillSlope)). Actual results from a representative cytotoxicity assay are shown below in Table 2. Data is expressed as EC50 in μg/mL.

Another series has as its system MRSA ATCC 33591. As to the kind of experiment: Anti-biofilm activity, minimum biofilm eradication concentration (MBEC). It is filed as cell-based, Staphylococcus aureus. Particulars: MRSA ATCC 33591 biofilm on filter paper disks; 24 hours challenge. As for the experimental part: The in vitro activity against biofilm was carried out by following the protocol for biofilm development and challenge using filter paper disks and 24-well plates. On day one, a tryptic soy agar plate (TSA) was streaked for MRSA isolation. On the second day a single colony of MRSA was grown in about 5 mL of tryptic soy broth (TSB). Filter papers were punched and autoclaved in 96-well plate. On the third day, a single filter paper disk was placed in each well of 24-well plate. The plate was inoculated with 300 μL/well of 0.01 adjusted OD600 bacteria inoculum in TSB supplemented with 1% glucose and 1.6% NaCl. The cells were allowed to grow for 48 hours on a shaker at 37° C. On day five, the challenge plate(s) were made in a 24-well plate(s), using eppendorf tubes to make dilutions and aliquoted into designated wells. The wash plates were filled in each well of a 24-well plate with 500 μL 0.9% saline. The disks were removed with forceps from the growth plate to the wash plate to challenge plate, flaming in between or where needed. Once disks are in challenge plate, incubated for 24 hours on shaker at 37° C. […] On day seven, the colonies were counted.
The actual MBEC of Compound 113 against MRSA ATCC 33591 was determined to be 32 μg/mL.

Where [6] appears, read: mouse, NIH/3T3 cells (CRL-1658).

Turning to `N=C(N)NCCCCC(=O)Nc1cc(C(F)(F)F)cc(NC(=O)Nc2ccc(Oc3ccc(NCCN)c(C(F)(F)F)c3)c(CCCN)c2)c1SCCN` [Compound 108, N-[3-[[4-[4-(2-aminoethylamino)-3-(trifluoromethyl)phenoxy]-3-(3-aminopropyl)phenyl]carbamoylamino]-2-(2-aminoethylsulfanyl)-5-(trifluoromethyl)phenyl]-5-guanidino-pentanamide], the MIC50 (as a rule, an inhibitory concentration at the 50% level, which refers to growth in some studies and to a panel of isolates in others) with E. Coli ATCC 25922 stood at 3.13 µg/mL (≈ 3.98 µM); in series [1], 3.13 µg/mL (≈ 3.98 µM); in series [2], 6.25 µg/mL (≈ 7.94 µM); in series [3], 3.13 µg/mL (≈ 3.98 µM); in series [4], 1.56 µg/mL (≈ 1.98 µM). Also, the EC50 (in general, the concentration needed to bring the measured effect to its halfway point) at 1 h amounted to 395 µg/mL (≈ 502 µM) in series [5] (human, HepG2 cells (HB-8065)) and 186 µg/mL (≈ 236 µM) in series [5] (setting [6]).

For `N=C(N)NCCCCC(=O)Nc1cc(C(F)(F)F)cc(NC(=O)Nc2ccc(Oc3ccc(NCCN)c(C(F)(F)F)c3)c(CCCN)c2)c1O[C@@H]1CCNC1` [Compound 109, N-[3-[[4-[4-(2-aminoethylamino)-3-(trifluoromethyl)phenoxy]-3-(3-aminopropyl)phenyl]carbamoylamino]-2-[(3R)-pyrrolidin-3-yl]oxy-5-(trifluoromethyl)phenyl]-5-guanidino-pentanamide], the MIC50 in the series on E. Coli ATCC 25922 came to 6.25 µg/mL (≈ 7.84 µM); in series [1], 3.13 µg/mL (≈ 3.93 µM); in series [2], 12.5 µg/mL (≈ 15.7 µM); in series [3], 6.25 µg/mL (≈ 7.84 µM); in series [4] it was 1.56 µg/mL (≈ 1.96 µM). Besides, the EC50 at 1 h in series [5] (human, HepG2 cells (HB-8065)) was 409 µg/mL (≈ 513 µM); in series [5] (setting [6]), 256 µg/mL (≈ 321 µM).

`N=C(N)NCCCC(=O)Nc1cc(C(F)(F)F)cc(NC(=O)Nc2ccc3nc(-c4ccc(NCCCN)cc4)sc3c2)c1SCCN` [Compound 110, N-[2-(2-aminoethylsulfanyl)-3-[[2-[4-(3-aminopropylamino)phenyl]-1,3-benzothiazol-6-yl]carbamoylamino]-5-(trifluoromethyl)phenyl]-4-guanidino-butanamide]: the MIC50 in the series on E. Coli ATCC 25922 turned out to be 1.56 µg/mL (≈ 2.22 µM); in series [1], 0.098 µg/mL (≈ 0.139 µM); in series [2] it was 6.25 µg/mL (≈ 8.89 µM); in series [3], 3.13 µg/mL (≈ 4.45 µM); in series [4] it was 1.56 µg/mL (≈ 2.22 µM). Moreover, the EC50 at 1 h turned out to be 49.9 µg/mL (≈ 71 µM) in series [5] (human, HepG2 cells (HB-8065)) and 50.7 µg/mL (≈ 72.1 µM) in series [5] (setting [6]).

Turning to `N=C(N)NCCCCC(=O)Nc1cc(C(F)(F)F)cc(NC(=O)Nc2ccc3nc(NC(=O)Nc4cc(C(F)(F)F)cc(NC(=O)CCCCNC(=N)N)c4SCCN)sc3c2)c1SCCN` [Compound 111, N-[2-(2-aminoethylsulfanyl)-3-[[2-[[2-(2-aminoethylsulfanyl)-3-(5-guanidinopentanoylamino)-5-(trifluoromethyl)phenyl]carbamoylamino]-1,3-benzothiazol-6-yl]carbamoylamino]-5-(trifluoromethyl)phenyl]-5-guanidino-pentanamide], the MIC50 in the series on E. Coli ATCC 25922 came to 3.13 µg/mL (≈ 3.12 µM); in series [1], 0.195 µg/mL (≈ 0.195 µM); in series [2], 12.5 µg/mL (≈ 12.5 µM); in series [3] it was 3.13 µg/mL (≈ 3.12 µM); in series [4], 3.13 µg/mL (≈ 3.12 µM). The EC50 at 1 h came to 54 µg/mL (≈ 53.9 µM) in series [5] (human, HepG2 cells (HB-8065)) and 50.1 µg/mL (≈ 50 µM) in series [5] (setting [6]).

With `N=C(N)NCCCCC(=O)Nc1cc(C(F)(F)F)cc(NC(=O)Nc2ccc3nc(NC(=O)Nc4cc(C(F)(F)F)cc(NC(=O)CCCCNC(=N)N)c4O[C@@H]4CCNC4)sc3c2)c1O[C@@H]1CCNC1` [Compound 112, 5-guanidino-N-[3-[[2-[[3-(5-guanidinopentanoylamino)-2-[(3R)-pyrrolidin-3-yl]oxy-5-(trifluoromethyl)phenyl]carbamoylamino]-1,3-benzothiazol-6-yl]carbamoylamino]-2-[(3R)-pyrrolidin-3-yl]oxy-5-(trifluoromethyl)phenyl]pentanamide], the MIC50 with E. Coli ATCC 25922 came to 1.56 µg/mL (≈ 1.53 µM); in series [1] it was 0.098 µg/mL (≈ 0.0959 µM); in series [2] it was 25 µg/mL (≈ 24.5 µM); in series [3], 3.13 µg/mL (≈ 3.06 µM); in series [4], 1.56 µg/mL (≈ 1.53 µM). The EC50 at 1 h in series [5] (human, HepG2 cells (HB-8065)) amounted to 105 µg/mL (≈ 103 µM); in series [5] (setting [6]), 52.5 µg/mL (≈ 51.4 µM).

`NCCCc1cc(NC(=O)Nc2cc(C(F)(F)F)c(SCCN)cc2SCCN)ccc1Oc1ccc(NCCN)c(C(F)(F)F)c1` [Compound 113, 1-[4-[4-(2-aminoethylamino)-3-(trifluoromethyl)phenoxy]-3-(3-aminopropyl)phenyl]-3-[2,4-bis(2-aminoethylsulfanyl)-5-(trifluoromethyl)phenyl]urea] registered an MBEC in the series on MRSA ATCC 33591 of 32 µg/mL. In addition, the MIC50 is 3.13 µg/mL (≈ 4.43 µM) with E. Coli ATCC 25922; 1.56 µg/mL (≈ 2.21 µM) in series [1]; 3.13 µg/mL (≈ 4.43 µM) in series [2]; 3.13 µg/mL (≈ 4.43 µM) in series [3]; 0.78 µg/mL (≈ 1.11 µM) in series [4]. For the same compound, the EC50 at 1 h in series [5] (human, HepG2 cells (HB-8065)) stood at 191 µg/mL (≈ 271 µM); in series [5] (setting [6]), 142 µg/mL (≈ 201 µM).

`NCCCc1cc(NC(=O)Nc2ccc(SCCN)c(C(F)(F)F)c2)ccc1Oc1ccc(NCCN)c(C(F)(F)F)c1` [Compound 114, 1-[4-[4-(2-aminoethylamino)-3-(trifluoromethyl)phenoxy]-3-(3-aminopropyl)phenyl]-3-[4-(2-aminoethylsulfanyl)-3-(trifluoromethyl)phenyl]urea]: the MIC50 in the series with E. Coli ATCC 25922 came to 6.25 µg/mL (≈ 9.91 µM); in series [1], 1.56 µg/mL (≈ 2.47 µM); in series [2], 3.13 µg/mL (≈ 4.96 µM); in series [3], 12.5 µg/mL (≈ 19.8 µM); in series [4], 1.56 µg/mL (≈ 2.47 µM). The EC50 at 1 h in series [5] (human, HepG2 cells (HB-8065)) came to 238 µg/mL (≈ 377 µM); in series [5] (setting [6]), 160 µg/mL (≈ 254 µM).

`NCC#Cc1cc(-n2ccc3cc([N+](=O)[O-])ccc32)cc(C(F)(F)F)c1` [Compound 115]: the MIC (commonly the least concentration at which growth counts as inhibited) was found to be 25 µg/mL (≈ 69.6 µM) in the series on E. Coli ATCC 25922; 6.25 µg/mL (≈ 17.4 µM) in series [1]; 7.5 µg/mL (≈ 20.9 µM) in series [2]; 25 µg/mL (≈ 69.6 µM) in series [3]; 25 µg/mL (≈ 69.6 µM) in series [4]. Moreover, the EC50 at 1 h was found to be 74.3 µg/mL (≈ 207 µM) in series [5] (human, HepG2 cells (HB-8065)) and 43.3 µg/mL (≈ 121 µM) in series [5] (setting [6]).
